Patent US20250257055A1, “TERTIARY AMIDE DERIVATIVES SUBSTITUTED WITH 4-MEMBERED RING STRUCTURE” (Sumitomo Pharma Co., Ltd., priority 2024, published 2025)
Where two headings read alike, the source gives them in different places.

Tests used:
recombinant p300 = recombinant p300 (Homo sapiens (Human), UniProt Q09472); assay: HAT activity inhibition experiment (SensoLyte HAT(p300) Assay Kit); assay type: biochemical; settings: recombinant p300, histone H3 peptide, acetyl CoA
In short: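 Recombinant human p300 preincubated with compound 10 min at room temperature, then acetyl-CoA and histone H3 peptide added and reacted 30 min at 37 °C. After stop, developer added for 30 min at room temperature in the dark; fluorescence read at Ex 389/Em 513 nm.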

G-401 cells = assay: Cell proliferation inhibition experiment using G-401 cells; assay type: cell-based; settings: Homo sapiens, 72 h, cultured for 3 days, CellTiter-Glo
In short: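 Malignant rhabdoid tumor-derived cells, grown in McCoy's 5A with 10% FBS, were seeded at 500 cells/well and dosed one day later (final DMSO 0.1%). After 3 days of culture at 37° C, viability was read by CellTiter-Glo luminescence.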

Kuramochi cells = assay: Cell proliferation inhibition experiment using Kuramochi cells; assay type: cell-based; settings: 144 h, cultured for 6 days, CellTiter-Glo
Procedure: Kuramochi cells (derived from ovarian cancer) were obtained from JCRB (Japanese Collection of Research Bioresources) cell bank. Kuramochi cells were cultured in RPMI-1640 medium containing 10% fetal bovine serum and 1% penicillin/streptomycin under conditions of 37° C. and 5% CO2.
(§1) 500 cells per well were seeded in a 384-well plate. One day after seeding, Examples 3, 7, 9, 10, 11, 20, 23 to 25, and 30 to 34 were added so that the final concentration of DMSO was 0.1%, and the cells were cultured for 6 days. After the culture was completed, the cell viability was measured using CellTiter-Glo Luminescent Cell Viability Assay (Promega, G7570).

RMGI cells = assay: Cell proliferation inhibition experiment using RMGI cells; assay type: cell-based; settings: Homo sapiens, RMG-I, 144 h, cultured for 6 days, CellTiter-Glo
Procedure: RMGI cells (derived from ovarian cancer) were obtained from JCRB cell bank. RMGI cells were cultured in Ham's F12 medium containing 10% fetal bovine serum and 1% penicillin/streptomycin under conditions of 37° C. and 5% CO2.
as §1, with “200” for “500”, “20, and” for “20,”, “25” for “25, and 30 to 34”

[1] = Membrane permeability test (PAMPA); assay type: in vitro ADME
In short: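 Donor compartment held compound in system solution over a GIT Lipid-0 membrane, with sink buffer on the acceptor side; incubation 4 h at 37° C. Donor and acceptor concentrations were read by UV (190-500 nm), or by LC-MS for weakly absorbing compounds, and Pe (10^−6 cm/sec) was calculated.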

[2] = Pharmacokinetic study in mice; assay type: in vivo
Procedure: The test compound was administered to 7-week-old female BALB/c (BALB/cAnN CrlCrlj) mice intravenously (dosage: 1 mg/kg) in a 50% PEG solution (0.01 mol/L HCl) or orally (dosage: 10 mg/kg) in a 0.5% methylcellulose aqueous solution, and blood was collected at the following times:
Intravenous administration: 5 min, 15 min, 30 min, 1 hr, 2 hr, 4 hr, 6 hr, and 24 hr after administration
Oral administration: 15 min, 30 min, 1 hr, 2 hr, 4 hr, 6 hr, and 24 hr after administration
The collected blood was centrifuged at 3000 rpm×10 min using a refrigerated centrifuge set at 4° C., and the obtained plasma was measured by LC-MS. A calibration curve was prepared from the value (peak ratio) obtained by dividing the peak area of the test substance by the peak area of the internal standard substance in MS and the concentration of the plasma calibration curve sample. The concentration in the sample was calculated from the peak ratio and the calibration curve of each sample.

hDAT = hDAT (Homo sapiens (Human), UniProt Q01959); assay: Dopamine receptor inhibitory activity evaluation (binding assay, CHO-S/hDAT membranes); settings: CHO-S/hDAT membrane preparation
hDAT, sequence (Q01959 whole entry): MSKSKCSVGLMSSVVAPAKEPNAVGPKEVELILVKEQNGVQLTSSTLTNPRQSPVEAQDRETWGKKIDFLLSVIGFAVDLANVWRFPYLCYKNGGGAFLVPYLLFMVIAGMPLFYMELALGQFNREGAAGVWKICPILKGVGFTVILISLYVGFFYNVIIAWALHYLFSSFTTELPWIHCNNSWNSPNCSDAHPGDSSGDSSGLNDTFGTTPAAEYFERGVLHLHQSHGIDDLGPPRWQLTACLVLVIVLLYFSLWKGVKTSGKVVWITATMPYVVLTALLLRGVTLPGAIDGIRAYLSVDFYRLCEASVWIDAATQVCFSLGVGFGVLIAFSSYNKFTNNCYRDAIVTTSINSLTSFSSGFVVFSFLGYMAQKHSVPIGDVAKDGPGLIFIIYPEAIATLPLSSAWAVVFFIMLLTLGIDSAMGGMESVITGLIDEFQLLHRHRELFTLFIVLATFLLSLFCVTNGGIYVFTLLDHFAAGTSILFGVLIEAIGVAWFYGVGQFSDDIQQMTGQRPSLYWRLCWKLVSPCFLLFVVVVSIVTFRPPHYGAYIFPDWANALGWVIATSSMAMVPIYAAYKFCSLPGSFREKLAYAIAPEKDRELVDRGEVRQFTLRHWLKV
Procedure: The binding evaluation assay was outsourced to Eurofins. Specifically, CHO-S/hDAT cells were homogenized in an incubation buffer consisting of 50 mmol/L Tris-HCl, pH 7.4, 100 mmol/L NaCl, 1 μmol/L Leupeptin, and 10 μmol/L PMSF. The membrane pellet obtained by centrifugation was resuspended in the incubation buffer to prepare a membrane preparation. The test compound (1-10 μmol/L DMSO solution), the membrane preparation, and 0.15 nmol/L […] were mixed and incubated at 4° C. for 180 minutes. The cell membrane-[^125I]RTI-55 complex was bound to a GF/B filter mat by vacuum filtration and washed with 50 mmol/L Tris-HCl, pH 7.4. The effect on the receptor was assessed by measuring radioactivity using a scintillation counter.

hSERT = hSERT (Homo sapiens (Human), UniProt P31645); assay: Serotonin receptor inhibitory activity evaluation (binding assay, HEK293/hSERT membranes); settings: HEK293/hSERT membrane preparation, [3H]Paroxetin
hSERT, sequence (P31645 whole entry): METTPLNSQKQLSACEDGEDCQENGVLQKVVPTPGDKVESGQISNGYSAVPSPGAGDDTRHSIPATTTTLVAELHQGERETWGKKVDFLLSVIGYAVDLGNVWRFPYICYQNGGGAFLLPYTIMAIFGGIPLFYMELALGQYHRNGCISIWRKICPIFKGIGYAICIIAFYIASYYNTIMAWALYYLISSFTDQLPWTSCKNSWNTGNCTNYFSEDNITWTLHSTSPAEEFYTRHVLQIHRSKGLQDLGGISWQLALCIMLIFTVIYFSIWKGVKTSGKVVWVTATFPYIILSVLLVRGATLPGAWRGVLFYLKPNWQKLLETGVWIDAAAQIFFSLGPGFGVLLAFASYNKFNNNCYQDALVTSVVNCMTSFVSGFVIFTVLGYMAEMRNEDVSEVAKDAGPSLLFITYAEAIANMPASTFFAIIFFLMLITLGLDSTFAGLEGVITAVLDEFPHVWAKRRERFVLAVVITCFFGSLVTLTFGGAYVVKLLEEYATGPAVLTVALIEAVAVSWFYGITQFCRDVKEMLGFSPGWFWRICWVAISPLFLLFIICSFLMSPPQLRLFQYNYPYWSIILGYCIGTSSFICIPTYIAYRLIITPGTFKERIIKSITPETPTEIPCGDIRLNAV
Procedure: The binding evaluation assay was outsourced to Eurofins. Specifically, HEK293/hSERT cells were homogenized in a buffer consisting of 100 mmol/L NaCl, 1 μmol/L Leupeptin, 10 μmol/L PMSF, and 50 mmol/L Tris-HCl (pH7.4). The membrane pellet obtained by centrifugation was resuspended in an incubation buffer consisting of 50 mmol/L Tris-HCl (pH 7.4), 120 mmol/L NaCl, and 5 mmol/L KCl to prepare a membrane preparation. The test compound (1-10 μmol/L DMSO solution), the membrane preparation, and 0.4 nmol/L [^3H]Paroxetin were mixed and incubated at 25° C. for 60 minutes. The cell membrane-[^3H]Paroxetin complex was bound to a GF/B filter mat by vacuum filtration and washed with 50 mmol/L Tris-HCl (pH 7.4). The effect on the receptor was assessed by measuring radioactivity using a scintillation counter.

[3] = female, BALB/c (BALB/cAnN CrlCrlj), mouse, plasma, oral, 10 mg/kg

recombinant p300, sequence (Q09472 whole entry): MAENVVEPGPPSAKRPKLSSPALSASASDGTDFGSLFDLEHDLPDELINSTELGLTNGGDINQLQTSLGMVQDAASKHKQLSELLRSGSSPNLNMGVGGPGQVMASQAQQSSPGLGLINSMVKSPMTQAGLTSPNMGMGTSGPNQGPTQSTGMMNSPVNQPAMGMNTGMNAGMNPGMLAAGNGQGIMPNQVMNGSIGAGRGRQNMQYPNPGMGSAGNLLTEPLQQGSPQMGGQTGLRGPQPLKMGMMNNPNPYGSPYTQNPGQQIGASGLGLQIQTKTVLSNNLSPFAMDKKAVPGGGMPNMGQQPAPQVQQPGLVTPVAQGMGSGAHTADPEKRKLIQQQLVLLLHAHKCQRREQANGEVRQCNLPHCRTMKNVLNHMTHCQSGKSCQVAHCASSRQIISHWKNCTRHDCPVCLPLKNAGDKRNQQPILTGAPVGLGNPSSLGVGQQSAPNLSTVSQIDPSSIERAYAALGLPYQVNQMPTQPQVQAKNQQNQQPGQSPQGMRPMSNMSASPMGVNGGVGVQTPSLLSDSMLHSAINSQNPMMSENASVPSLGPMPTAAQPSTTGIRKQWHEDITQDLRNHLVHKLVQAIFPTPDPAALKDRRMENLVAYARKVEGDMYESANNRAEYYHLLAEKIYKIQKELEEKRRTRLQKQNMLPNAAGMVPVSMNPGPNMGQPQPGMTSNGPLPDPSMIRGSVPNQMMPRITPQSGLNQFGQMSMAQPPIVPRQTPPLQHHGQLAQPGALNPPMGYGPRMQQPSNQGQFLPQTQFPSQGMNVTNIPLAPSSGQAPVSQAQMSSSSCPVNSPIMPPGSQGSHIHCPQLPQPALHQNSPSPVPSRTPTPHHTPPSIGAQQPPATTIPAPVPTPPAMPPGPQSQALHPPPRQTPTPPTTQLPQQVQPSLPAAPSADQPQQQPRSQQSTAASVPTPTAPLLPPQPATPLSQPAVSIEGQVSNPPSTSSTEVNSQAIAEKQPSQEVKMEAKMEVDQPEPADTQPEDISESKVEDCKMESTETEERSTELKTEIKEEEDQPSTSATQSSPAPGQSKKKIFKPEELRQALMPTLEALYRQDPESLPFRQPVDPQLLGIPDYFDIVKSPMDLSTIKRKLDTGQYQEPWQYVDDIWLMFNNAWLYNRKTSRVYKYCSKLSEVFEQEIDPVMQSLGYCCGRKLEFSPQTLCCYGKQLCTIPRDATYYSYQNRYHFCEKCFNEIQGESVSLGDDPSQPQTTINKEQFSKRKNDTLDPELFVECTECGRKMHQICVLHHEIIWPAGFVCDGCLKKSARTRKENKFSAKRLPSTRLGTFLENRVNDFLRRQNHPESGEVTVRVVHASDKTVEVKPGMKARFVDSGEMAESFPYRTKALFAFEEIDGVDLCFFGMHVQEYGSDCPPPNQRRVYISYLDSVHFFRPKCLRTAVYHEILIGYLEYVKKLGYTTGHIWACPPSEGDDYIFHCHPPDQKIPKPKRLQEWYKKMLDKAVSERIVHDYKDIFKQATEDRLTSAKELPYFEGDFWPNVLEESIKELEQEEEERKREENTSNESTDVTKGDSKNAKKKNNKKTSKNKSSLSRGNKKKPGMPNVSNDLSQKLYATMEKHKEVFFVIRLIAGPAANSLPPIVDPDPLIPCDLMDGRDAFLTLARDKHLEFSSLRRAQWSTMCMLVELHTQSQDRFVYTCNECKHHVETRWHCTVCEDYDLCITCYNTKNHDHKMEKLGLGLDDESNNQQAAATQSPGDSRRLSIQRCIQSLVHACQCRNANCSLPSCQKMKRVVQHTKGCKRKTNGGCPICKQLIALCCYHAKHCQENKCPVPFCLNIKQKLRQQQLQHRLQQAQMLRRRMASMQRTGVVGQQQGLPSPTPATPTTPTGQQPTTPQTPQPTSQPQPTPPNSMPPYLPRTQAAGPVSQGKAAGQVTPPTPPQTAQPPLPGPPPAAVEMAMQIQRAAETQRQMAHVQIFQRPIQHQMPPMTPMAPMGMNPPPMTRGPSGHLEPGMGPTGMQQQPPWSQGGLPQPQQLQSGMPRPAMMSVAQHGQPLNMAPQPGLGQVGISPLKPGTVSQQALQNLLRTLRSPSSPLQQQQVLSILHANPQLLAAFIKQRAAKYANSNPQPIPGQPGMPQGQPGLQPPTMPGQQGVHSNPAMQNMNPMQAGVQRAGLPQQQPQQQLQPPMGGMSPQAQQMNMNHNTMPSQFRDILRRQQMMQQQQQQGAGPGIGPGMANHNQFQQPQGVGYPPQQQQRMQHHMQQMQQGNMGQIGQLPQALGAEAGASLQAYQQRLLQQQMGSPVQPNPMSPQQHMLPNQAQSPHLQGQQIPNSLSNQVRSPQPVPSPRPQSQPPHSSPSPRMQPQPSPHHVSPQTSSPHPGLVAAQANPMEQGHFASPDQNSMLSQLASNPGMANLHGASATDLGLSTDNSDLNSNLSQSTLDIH

**Q.** With `CN1CC(N(Cc2ccc(F)cn2)C(=O)CN2C(=O)N[C@]3(C[C@@H](F)c4cc(-c5cnn(CC6COC6)c5)ccc43)C2=O)(C(F)(F)F)C1` [Example 25, 2-[(1′S,3′R)-3′-fluoro-5′-{1-[(oxetan-3-yl)methyl]-1H-pyrazol-4-yl}-2,5-dioxo-2′,3′-dihydrospiro[imidazolidine-4,1′-inden]-1-yl]-N-[(5-fluoropyridin-2-yl)methyl]-N-[1-methyl-3-(trifluoromethyl)azetidin-3-yl]acetamide] as the molecule, how does the IC50 (recombinant p300) read?
**A.** 0.0057 µM

**Q.** And the IC50 (G-401 cells)?
**A.** 0.059 µM

**Q.** And the IC50 (Kuramochi cells)?
**A.** 0.424 µM

**Q.** And the IC50 (RMGI cells)?
**A.** 0.041 µM

**Q.** What about the Papp at 4 h ([1]; pH 5.0, 37° C., read-out: pH 5.0 Pe) of the same molecule?
**A.** 1 ×10⁻⁶ cm/s

**Q.** And the Papp at 4 h ([1]; pH 7.4, 37° C., read-out: pH 7.4 Pe)?
**A.** 6.1 ×10⁻⁶ cm/s

**Q.** And the AUC ([2]; female, BALB/c (BALB/cAnN CrlCrlj), mouse, plasma, intravenous, 1 mg/kg)?
**A.** 672 ng·h/mL

**Q.** What about the AUC [2, 3] of the same molecule?
**A.** 1310 ng·h/mL

**Q.** What about the Cmax [2, 3] of the same molecule?
**A.** 1630 ng/mL

**Q.** And the BA ([2]; oral, 10 mg/kg)?
**A.** 19.6%

**Q.** What about the inhibition at 10 µM (hDAT) of the same molecule?
**A.** 9%

**Q.** And the inhibition at 10 µM (hSERT)?
**A.** 2%
